From patent US11091482B2, “Isoxazolyl-carbonyloxy azabicyclo[3.2.1]octanyl compounds as FXR activators” (ARDELYX, INC., priority 2016, dated 2021)
pEC50: −log10 of the molar value.

What was measured:
[1] = Western diet study; assay type: in vivo, C57BL/6 mice; details: male, C57BL/6, mouse, serum; 30 mg/kg q.d., after 2 weeks of treatment, 2 hours after the last dose; read-out: serum FXR agonist concentration
Description: (§1) Six-week-old C57BL/6 male mice were fed a Western diet (WD) (62% fat/0.2% cholesterol). […] An additional control group (lean) was fed a standard rodent chow throughout the study. Body weight measurements and serum samples (tail bleed) were taken weekly. After 6 weeks of treatment, all animals were sacrificed and hepatosteatosis-related endpoints and other liver markers were measured.
(§2) Total RNA from mouse tissues was isolated and used for library preparation.

[2] = system: C57BL/6 male mice fed a Western diet; experiment: Western diet study; assay type: in vivo, C57BL/6 mice
Description: as §1, §2

[3] = biological target: ligand binding domain of human FXR (Homo sapiens (Human), UniProt Q96RI1); experiment: FXR ligand binding assay (LanthaScreen FRET); parameters: Activity, %: concentration or dose not given beside the values; details: Human FXR Binding (FRET);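 note: TR-FRET coactivator recruitment: ligand-induced binding of fluorescein-labelled SRC2-2 peptide to GST-tagged FXR LBD detected via Tb anti-GST antibody, serial compound dilutions, 3-parameter logistic fit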
[4] = system: fibroblast growth factor 19 (FGF19) secretion in human ileum; experiment: Human ileum APECCS (FGF19 secretion); assay type: cell-based
[5] = system: FXR target genes; experiment: Single-dose FXR target gene expression in mice fed a standard diet; assay type: in vivo, C57BL/6 mice; details: single dose 30 mg/kg
From the text: as §2

[6] = biological target: human Farnesoid X receptor ligand-binding domain/Gal4 DNA binding domain chimera (Homo sapiens (Human), UniProt Q96RI1); experiment: Cell-based FXR beta-lactamase reporter assay (FXR-UAS-bla HEK 293T cells); details: Human FXR Cell (Gal4)
Method in brief: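 Stable FXR-UAS-bla HEK 293T cells in phenol red-free DMEM with 2% charcoal-stripped FBS were exposed to 3-fold serial dilutions of compound. Beta-lactamase reporter activity was read by CCF4 FRET loss, exciting at 409 nm with blue emission at 447 nm. The FRET change versus concentration was fit to a 3-parameter logistic equation.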

[7] = Western diet, 6 weeks of treatment
[8] = Western diet, 6 weeks, I-2 30 mg/kg q.d. or b.i.d., Px-102 30 mg/kg q.d., FGF15-AAV single IV dose

Sequence of ligand binding domain of human FXR (Q96RI1 262-486): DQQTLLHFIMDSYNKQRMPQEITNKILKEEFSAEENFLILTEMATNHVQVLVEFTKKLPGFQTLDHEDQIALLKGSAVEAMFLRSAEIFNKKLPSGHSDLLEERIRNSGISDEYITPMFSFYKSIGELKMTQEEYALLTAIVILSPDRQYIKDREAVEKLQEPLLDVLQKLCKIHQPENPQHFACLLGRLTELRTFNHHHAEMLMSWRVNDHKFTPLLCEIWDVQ
Sequence of human Farnesoid X receptor ligand-binding domain/Gal4 DNA binding domain chimera (Q96RI1 262-486, change not shown): as the sequence (Q96RI1 262-486) above

Structure (SMILES): O=C(O)c1ccc([C@H]2C[C@@H]2c2ccc(OCc3c(-c4c(Cl)cccc4Cl)noc3C3CC3)cc2Cl)cc1 [Px-102]
- concentration at 2 h [1]: 475 ng/mL
- body weight [2, 7]: did not affect
- liver weight [2, 7]: did not affect
- liver cholesterol [2, 8]: normalized
- liver triglycerides [2, 8]: normalized
- macrovesicular steatosis [2, 8]: reduced
- serum cholesterol [2, 8]: reduced
- Cyp7a1 gene expression ([2]; liver, Western diet): downregulated
- serum FGF15 concentration ([2]; mice fed a WD): further increased
- Activity, % ([3]; relative to GW4064): 90 ± 15%
- EC50 ([3]; value ± spread, read-out: pEC50 (converted)): 10 nM
- pEC50 ([4]; Fibroblast): 6.48
- Activity, % ([4]; relative to GW4064): 96.5 ± 25%
- expression of selected FXR target genes in the liver [5]: activated
- expression of FXR target genes, including FGF15, in the ileum ([5]; 6 h after dosing): activated
- Activity, % ([6]; relative to GW4064): 108%
- EC50 ([6]; read-out: pEC50 (converted)): 158 nM
